Assay results reported in patent publication US11427548B2 (Arvinas Operations, Inc., priority 2015, dated 2022).
Like-named read-outs stand apart in the source and are kept apart here.

Molecular target: T1, Androgen Receptor (Homo sapiens, UniProt P10275)
T1 construct: endogenous in cells; host or cells: VCaP cells
T1 sequence (P10275 1-920): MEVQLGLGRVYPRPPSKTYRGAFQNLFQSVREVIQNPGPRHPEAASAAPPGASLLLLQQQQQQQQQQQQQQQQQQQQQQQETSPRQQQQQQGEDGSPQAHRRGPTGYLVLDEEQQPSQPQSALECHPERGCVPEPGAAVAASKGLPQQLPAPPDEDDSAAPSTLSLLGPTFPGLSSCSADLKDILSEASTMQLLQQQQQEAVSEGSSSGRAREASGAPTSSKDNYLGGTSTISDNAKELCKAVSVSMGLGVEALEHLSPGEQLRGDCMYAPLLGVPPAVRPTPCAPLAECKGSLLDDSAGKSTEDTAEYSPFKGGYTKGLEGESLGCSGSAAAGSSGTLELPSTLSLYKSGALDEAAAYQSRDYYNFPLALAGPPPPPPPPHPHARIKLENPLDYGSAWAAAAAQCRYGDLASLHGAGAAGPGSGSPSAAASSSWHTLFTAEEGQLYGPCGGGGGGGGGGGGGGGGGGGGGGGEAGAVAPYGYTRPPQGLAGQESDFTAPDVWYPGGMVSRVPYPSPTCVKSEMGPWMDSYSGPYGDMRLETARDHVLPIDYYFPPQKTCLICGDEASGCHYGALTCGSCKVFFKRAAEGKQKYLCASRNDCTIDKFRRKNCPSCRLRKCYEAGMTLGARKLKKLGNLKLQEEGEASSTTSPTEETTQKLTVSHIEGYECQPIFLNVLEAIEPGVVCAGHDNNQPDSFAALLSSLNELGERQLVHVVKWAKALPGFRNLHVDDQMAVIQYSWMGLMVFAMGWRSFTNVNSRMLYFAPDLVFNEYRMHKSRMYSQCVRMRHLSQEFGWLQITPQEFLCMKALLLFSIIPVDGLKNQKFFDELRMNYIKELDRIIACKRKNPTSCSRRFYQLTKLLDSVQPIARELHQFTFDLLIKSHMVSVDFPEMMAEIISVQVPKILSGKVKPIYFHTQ
Assay: Androgen Receptor ELISA assay (PathScan AR ELISA) in VCaP cells: AR degradation, Dmax and DC50
Assay type: cell-based
Summary of the method: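 After 24 h exposure of VCaP cells (charcoal-stripped serum, 0.1 nM R1881 agonist, 0.1% DMSO) to seven half-log compound concentrations, residual AR in lysates was measured by PathScan ELISA (TMB absorbance, 450 nm). Cells were plated at 30,000/well and grown at least 3 days beforehand.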

[1] = VCaP cells; Table 36; read-out: VCaP DC50
[2] = VCaP, highest percentage of Androgen Receptor degradation observed, VCaP cells (Table 32); read-out: VCaP Dmax (%)
[3] = concentration that caused 50% Androgen Receptor degradation, VCaP cells (Table 32); read-out: VCaP DC50
[4] = read-out: VCaP DC50; VCaP cells; Table 36
[5] = VCaP, VCaP cells; Table 35; read-out: VCaP Dmax (%)
[6] = VCaP, VCaP cells; Table 36; read-out: VCaP Dmax (%)

| DC50 [1] | Dmax [6] | Structure (SMILES) | Dmax (VCaP, read-out: VCaP Dmax (%)) | further results |
| --- | --- | --- | --- | --- |
| – | – | Cc1ncsc1-c1ccc(CNC(=O)[C@@H]2C[C@@H](O)CN2C(=O)[C@@H](NC(=O)CO[C@@H](C)CCCCOc2ccc(C(=O)N[C@H]3C(C)(C)[C@H](Oc4ccc(C#N)c(Cl)c4)C3(C)C)cc2)C(C)(C)C)cc1 [Example 159, (2S,4R)-1-[(2S)-3,3-dimethyl-2-(2-{[(2S)-6-(4-{[trans-3-(3-chloro-4-cyanophenoxy)-2,2,4,4-tetramethylcyclobutyl]carbamoyl}phen-oxy)hexan-2-yl]oxy}acetamido)butanoyl]-4-hydroxy-N-{[4-(4-methyl-1,3-thiazol-5-yl)phenyl]methyl}pyrrolidine-2-carboxamide] | – | Dmax [2]: > 71%; DC50 [3]: < 50 nM |
| – | – | Cc1ncsc1-c1ccc([C@H](C)NC(=O)[C@@H]2C[C@@H](O)CN2C(=O)[C@@H](NC(=O)CCCN(C)[C@H](C(=O)N[C@H](C(=O)N(C)CCOc2ccc(N3C(=S)N(c4ccc(C#N)c(C(F)(F)F)c4)C(=O)C3(C)C)cc2)C(C)C)C(C)C)C(C)(C)C)cc1 [Example 714, (2S,4R)-1-((5S,8S,15S)-15-(tert-butyl)-1-(4-(3-(4-cyano-3-(trifluoromethyl)phenyl)-5,5-dimethyl-4-oxo-2-thioxoimidazolidin-1-yl)phenoxy)-5,8-diisopropyl-3,9-dimethyl-4,7,13-trioxo-3,6,9,14-tetraazahexadecan-16-oyl)-4-hydroxy-N-((S)-1-(4-(4-methylthiazol-5-yl)phenyl)ethyl)pyrrolidine-2-carboxamide] | < 25% | DC50 [4]: > 501 nM |
| – | – | Cc1ncsc1-c1ccc([C@@H](C)NC(=O)[C@@H]2C[C@@H](O)CN2C(=O)[C@@H](NC(=O)COCCCCCNc2ccc(C(=O)N[C@H]3C(C)(C)[C@H](Oc4ccc(C#N)c(Cl)c4)C3(C)C)cc2)C(C)(C)C)cc1 [Example 459] | – | DC50 (VCaP cells; Table 35; read-out: VCaP DC50): > 501 nM; Dmax [5]: 26 to 50% |
| – | – | Cc1ncsc1-c1ccc(CNC(=O)[C@@H]2C[C@@H](O)CN2C(=O)[C@@H](NC(=O)COCCCOCCCCCOc2ccc(N3C(=S)N(c4ccc(C#N)cc4)C(=O)C3(C)C)cc2)C(C)(C)C)cc1 [Example 479] | – | Dmax [5]: 26 to 50% |
| > 501 nM | 26 to 50% | Cc1ncsc1-c1ccc([C@H](C)NC(=O)[C@@H]2C[C@@H](O)CN2C(=O)[C@H](c2cc(N3CCN(CCCc4ccc(C(=O)N[C@H]5C(C)(C)[C@H](Oc6ccc(C#N)c(Cl)c6)C5(C)C)cc4)CC3)no2)C(C)C)cc1 [Example 796, (2S,4R)-1-((S)-2-(3-(4-(3-(4-(((1r,3r)-3-(3-chloro-4-cyanophenoxy)-2,2,4,4-tetramethylcyclobutyl)carbamoyl)phenyl)propyl)piperazin-1-yl)isoxazol-5-yl)-3-methylbutanoyl)-4-hydroxy-N-((S)-1-(4-(4-methylthiazol-5-yl)phenyl)ethyl)pyrrolidine-2-carboxamide] | – | – |
| – | – | Cc1ncsc1-c1ccc([C@H](C)NC(=O)[C@@H]2C[C@@H](O)CN2C(=O)[C@@H](NC(=O)CN2CCO[C@@H](CN3CCO[C@H](COc4ccc(N5C(=O)N(c6ccc(C#N)c(C(F)(F)F)c6)C(=O)C5(C)C)cc4)C3)C2)C(C)(C)C)cc1 [Example 676, (2S,4R)-1-((S)-2-(2-((S)-2-(((S)-2-((4-(3-(4-cyano-3-(trifluoromethyl)phenyl)-5,5-dimethyl-4-oxo-2-thioxoimidazolidin-1-yl)phenoxy)methyl)mor-pholino)methyl)mor-phpolino)acetamido)-3,3-dimethylbutanoyl)-4-hydroxy-N-((S)-1-(4-(4-methylthiazol-5-yl)phenyl)ethyl)pyrrolidine-2-carboxamide] | – | DC50 [4]: > 501 nM |
| < 50 nM | 26 to 50% | Cc1ncsc1-c1ccc([C@H](C)NC(=O)[C@@H]2C[C@@H](O)CN2C(=O)[C@@H](NC(=O)COC2CN(CCNc3ccc(C(=O)N[C@H]4C(C)(C)[C@H](Oc5ccc(C#N)c(Cl)c5)C4(C)C)cn3)C2)C(C)(C)C)cc1 [Example 842, N-((1r,3r)-3-(3-chloro-4-cyanophenoxy)-2,2,4,4-tetramethylcyclobutyl)-6-((2-(3-(2-(((S)-1-((2S,4R)-4-hydroxy-2-(((S)-1-(4-(4-methylthiazol-5-yl)phenyl)ethyl)carbamoyl)pyrrolidin-1-yl)-3,3-dimethyl-1-oxobutan-2-yl)amino)-2-oxoethoxy)azetidin-1-yl)ethyl)amino) nicotinamide] | – | – |
| > 501 nM | 26 to 50% | CC(C)(C)[C@H](NC(=O)COCCN1CCN(c2ccc(C(=O)N[C@H]3C(C)(C)[C@H](Oc4ccc(C#N)c(Cl)c4)C3(C)C)cn2)CC1)C(=O)N1C[C@H](O)C[C@H]1C(=O)NCc1ccc(Cl)cc1 [Example 737, N-((1r,3r)-3-(3-chloro-4-cyanophenoxy)-2,2,4,4-tetramethylcyclobutyl)-6-(4-(2-(2-(((S)-1-((2S,4R)-2-((4-chlorobenzyl)carbmaoyl)-4-hydroxypyrrolidin-1-yl)-3,3-dimethyl-1-oxobutan-2-yl)amino)-2-oxoethoxy)ethyl)pipera-zin-1-yl)nicotinamdie] | – | – |
| – | – | Cc1ncoc1-c1ccc(CNC(=O)[C@@H]2C[C@@H](O)CN2C(=O)[C@@H](NC(=O)CCCOc2ccc(-c3ccc(C(=O)N[C@H]4C(C)(C)[C@H](Oc5ccc(C#N)c(Cl)c5)C4(C)C)cc3)cc2)C(C)(C)C)cc1 [Example 180] | – | Dmax [2]: > 71%; DC50 [3]: < 50 nM |
| – | – | Cc1ncsc1-c1ccc([C@H](C)NC(=O)[C@@H]2C[C@@H](O)CN2C(=O)[C@@H](NC(=O)COCCCCOc2ccc(-c3ccc(N4C(=S)N(c5ccc(C#N)c(C(F)(F)F)c5)C(=O)C4(C)C)c(F)c3)cc2)C(C)(C)C)cc1 [Example 137, (2S,4R)-1-[(2S)-2-(2-{4-[4-(4-{3-[4-cyano-3-(trifluoromethyl)phenyl]-5,5-dimethyl-4-oxo-2-sulfanylideneimidazolidin-1-yl}-3-fluorophenyl)phenoxy]butoxy}acetamido)-3,3-dimethylbutanoyl]-4-hydroxy-N-[(1S)-1-[4-(4-methyl-1,3-thiazol-5-yl)phenyl]ethyl]pyrrolidine-2-carboxamide] | > 71% | DC50 (read-out: VCaP DC50; concentration that caused 50% Androgen Receptor degradation, VCaP cells (Table 32)): < 50 nM |
| > 501 nM | < 25% | Cc1ncsc1-c1ccc([C@H](C)NC(=O)[C@@H]2C[C@@H](O)CN2C(=O)[C@H](c2ncc(CCCCCNc3ccc(C(=O)N[C@H]4C(C)(C)[C@H](Oc5ccc(C#N)c(Cl)c5)C4(C)C)nc3)n2C)C(C)C)cc1 [Example 692, N-((1r,3r)-3-(3-chloro-4-cyanophenoxy)-2,2,4,4-tetramethylcyclobutyl)-5-((5-(2-((S)-1-((2S,4R)-4-hydroxy-2-(((S)-1-(4-(4-methylthiazol-5-yl)phenyl)ethyl)carbam-oyl)pyrrolidin-1-yl)-3-methyl-1-oxobutan-2-yl)-1-methyl-1H-imidazol-5-yl)pentyl)amino)picolin-amide] | – | – |

| Structure (SMILES) | DC50 [1] | Dmax [6] | Dmax (VCaP, read-out: VCaP Dmax (%)) | further results |
| --- | --- | --- | --- | --- |
| Cc1ncsc1-c1ccc(CNC(=O)[C@@H]2C[C@@H](O)CN2C(=O)[C@@H](NC(=O)CN2CCN(CCCc3cn(-c4ccc(C(=O)N[C@H]5C(C)(C)[C@H](Oc6ccc(C#N)c(C(F)(F)F)c6)C5(C)C)cc4)nn3)CC2)C(C)(C)C)cc1 [Example 710, (2S,4R)-1-((S)-2-(2-(4-(3-(1-(4-(((1r,3r)-3-(4-cyano-3-(trifluoromethyl)phenoxy)-2,2,4,4-tetramethylcyclobutyl)carbamoyl)phenyl)-1H-1,2,3-triazol-4-yl)propyl)piperazin-1-yl)acetamido)-3,3-dimethylbutanoyl)-4-hydroxy-N-(4-(4-methylthiazol-5-yl)benzyl)pyrrolidine-2-carboxamide] | < 50 nM | – | 51 to 70% | – |
| Cc1ncsc1-c1ccc([C@H](C)NC(=O)C2C[C@@H](O)CN2C(=O)C(c2cc(OCCN(C)[C@H](C(=O)NC(C(=O)N3CCN(c4ccc(C(=O)NC5C(C)(C)C(Oc6ccc(C#N)c(Cl)c6)C5(C)C)cc4)CC3)C(C)C)C(C)C)no2)C(C)C)cc1 (stereo partly drawn) [Example 810, (2S,4R)-1-(2-(3-(2-(((S)-1-(((S)-1-(4-(4-(((1r,3S)-3-(3-chloro-4-cyanophenoxy)-2,2,4,4-tetramethylcyclobutyl)carbamoyl)phenyl)piperazin-1-yl)-3-methyl-1-oxobutan-2-yl)amino)-3-methyl-1-oxobutan-2-yl) (methyl)amino)ethoxy)isoxazol-5-yl)-3-methylbutanoyl)-4-hydroxy-N-((S)-1-(4-(4-methylthiazol-5-yl)phenyl)ethyl) pyrrolidine-2-carboxamide] | < 50 nM | – | > 71% | – |
